One assay has as its system TxB2 production. Briefly: TxB2 generation in clotted whole blood after i.v. dosing (method of Patrono et al, RIA). The conditions noted are these: Oryctolagus cuniculus, iv; for inhibition at 0.3 mg/kg: 0.3 mg/kg i.v.; for inhibition at 0.1 mg/kg: 0.1 mg/kg i.v. The format is in vivo, rabbits. The procedure:
The method of Patrono et al is adapted to study the generation of TxB2 is whole blood samples removed from animals prior to and following drug treatment. Briefly, blood samples are taken into glass tubes and allowed to clot at 37° C. Serum is separated by centrifugation and the samples stored at -40° C. until assayed for TxB2, when appropriate dilutions of ethanol deproteinised samples are analysed by RIA. This technique is used in experiments with the test compounds to determine intravenous potency in anaesthetised rabbits:
Male New Zealand white rabbits (2.6-5.6 kg) are anaesthetised with sodium pentobarbitone (30 mg/kg i.v.) followed by urethane (500 mg/kg i.p.). After cannulation of the trachea, a carotid artery is catheterised for collection of blood samples. The catheter is kept patent by slow infusion (0.2 ml/minute) of sterile saline. Control carotid arterial blood samples are taken 30 and 5 minutes prior to administration of the test compound or vehicle (0.9% w/v NaCl, 0.2 ml/kg) via a marginal ear vein. Three groups of rabbits are used. The first group receive 0.03 mg/kg of the test compound followed, one hour later, by 0.1 mg/kg. Similarly, the second group receive 0.3 mg/kg, followed by 1 mg/kg. The third group receive vehicle, followed one hour later by a further vehicle injection. […] At each time point, a 1 ml blood sample is taken into a glass test tube, without anticoagulant, for TxB2 determination. For the latter, the blood sample is allowed to clot during a two hour incubation at 37° C. (which preliminary experiments had shown to give maximum TxB2 production) and the serum obtained by centrifugation. Serum samples are then processed through the TxB2 RIA after deproteinisation with ethanol and dilution with Isogel Tris buffer.

Another assay concerns aggregation of platelets. The note with it: rats in vivo; cited from earlier work.
The subject of assay [1] is human blood platelet aggregation. The conditions noted are these: human blood platelets; cited from earlier work.
For assay [2] the following is noted: rabbit, intravenous arachidonic acid; cited from earlier work.
The test system of a further assay is prostacyclin synthetase. The note with it: pre-incubation of the enzyme with the inhibitor; cited from earlier work.

As to `Cc1c(Cn2ccnc2)oc2ccc(C(=O)O)cc12`, the inhibition (commonly the share of the control response that was lost under treatment) at 0.3 mg/kg in the assay on TxB2 production (2 min, 2 MIN post dose) is 92%; in the assay with TxB2 production (0.25 h, 15 MIN post dose), 83%; in the assay on TxB2 production (0.75 h, 45 MIN post dose) it was 65%; with TxB2 production (1.25 h, 75 MIN post dose) it was 51%. Moreover, the inhibition at 0.1 mg/kg was 47% in the assay on TxB2 production (0.25 h, 15 MIN post dose) and 37% in the assay on TxB2 production (0.5 h, 30 MIN post dose).

Regarding `Cc1c(Cn2ccnc2)sc2ccc(C(=O)O)cc12`, the inhibition at 0.1 mg/kg in the assay with TxB2 production (2 min, 2 MIN post dose) came to 100%; in the assay on TxB2 production (0.25 h, 15 MIN post dose) it was 98%; with TxB2 production (0.75 h, 45 MIN post dose), 100%; with TxB2 production (1.25 h, 75 MIN post dose) it was 98%. Also, the inhibition at 0.3 mg/kg in the assay with TxB2 production (0.25 h, 15 MIN post dose) was 94%; with TxB2 production (0.5 h, 30 MIN post dose) it was 95%.

Take `O=C1C(CC[S+]([O-])c2ccccc2)C(=O)N(c2ccccc2)N1c1ccccc1` (centres unmarked) [sulphinpyrazone]: in the assay on aggregation of platelets, the “prevention of platelet aggregation in extra corporeal loop of the abdominal aorta” value was “prevent the aggregation of platelets”. Moreover, the “inhibitory activity in vitro against a variety of aggregating agents” value in assay [1] was “show inhibitory activity”. Moreover, the “protection from the lethal effect of arachidonic acid injection” value in assay [2] was “protect the rabbit from the lethal effect”.

Consider `O=C(O)c1ccc2oc(Cn3ccnc3)c(Cl)c2c1`, for which the inhibition at 0.3 mg/kg in the assay on TxB2 production (2 min, 2 MIN post dose) was determined as 98%; in the assay on TxB2 production (0.25 h, 15 MIN post dose), 97%; in the assay with TxB2 production (0.75 h, 45 MIN post dose), 93%; in the assay on TxB2 production (1.25 h, 75 MIN post dose), 86%. Further, the inhibition at 0.1 mg/kg in the assay on TxB2 production (0.25 h, 15 MIN post dose) stood at 88%; in the assay with TxB2 production (0.5 h, 30 MIN post dose), 82%.

On to 15-hydroperoxyarachidonic acid, for which, in the assay with prostacyclin synthetase, the “inhibition of PGI2 production” value was “completely inhibited”.

As to `O=C(O)c1ccc2sc(Cn3ccnc3)c(Cl)c2c1`, the inhibition at 0.3 mg/kg with TxB2 production (2 min, 2 MIN post dose) stood at 99%; with TxB2 production (0.25 h, 15 MIN post dose) it was 100%; in the assay on TxB2 production (0.75 h, 45 MIN post dose), 100%; in the assay on TxB2 production (1.25 h, 75 MIN post dose), 99%. Besides, the inhibition at 0.1 mg/kg in the assay on TxB2 production (0.25 h, 15 MIN post dose) turned out to be 99%; in the assay on TxB2 production (0.5 h, 30 MIN post dose), 96%.

With `Cc1c(Sc2cccnc2)sc2ccc(C(=O)O)cc12`, the inhibition at 0.3 mg/kg in the assay with TxB2 production (2 min, 2 MIN post dose) was 98%; in the assay on TxB2 production (0.25 h, 15 MIN post dose), 81%; with TxB2 production (0.75 h, 45 MIN post dose) it was 36%; in the assay with TxB2 production (1.25 h, 75 MIN post dose), 33%. The inhibition at 0.1 mg/kg was 29% in the assay on TxB2 production (0.25 h, 15 MIN post dose) and 22% in the assay with TxB2 production (0.5 h, 30 MIN post dose).

Regarding `CC(=O)Oc1ccccc1C(=O)O` [aspirin], in assay [1], the “inhibitory activity in vitro against a variety of aggregating agents” value is given as “show inhibitory activity”. Besides, the “protection from the lethal effect of arachidonic acid injection” value in assay [2] is “protect the rabbit from the lethal effect”.

`Cc1c(Cc2cccnc2)sc2cc(C(=O)O)ccc12`: the inhibition at 0.3 mg/kg turned out to be 90% in the assay with TxB2 production (2 min, 2 MIN post dose); 91% in the assay with TxB2 production (0.25 h, 15 MIN post dose); 71% in the assay with TxB2 production (0.75 h, 45 MIN post dose); 52% in the assay on TxB2 production (1.25 h, 75 MIN post dose). Besides, the inhibition at 0.1 mg/kg with TxB2 production (0.25 h, 15 MIN post dose) was 76%; in the assay with TxB2 production (0.5 h, 30 MIN post dose), 46%.

With `CSc1c(Cn2ccnc2)sc2ccc(C(=O)O)cc12`, the inhibition at 0.3 mg/kg in the assay with TxB2 production (2 min, 2 MIN post dose) is 99%; in the assay with TxB2 production (0.25 h, 15 MIN post dose), 98%; in the assay on TxB2 production (0.75 h, 45 MIN post dose), 97%; with TxB2 production (1.25 h, 75 MIN post dose) it was 95%. Moreover, the inhibition at 0.1 mg/kg in the assay on TxB2 production (0.25 h, 15 MIN post dose) was 93%; with TxB2 production (0.5 h, 30 MIN post dose), 95%.

With `Cc1c(Cc2cccnc2)ccc2ccc(C(=O)O)cc12`, the inhibition at 0.3 mg/kg in the assay with TxB2 production (2 min, 2 MIN post dose) was 99%; in the assay on TxB2 production (0.25 h, 15 MIN post dose), 98%; in the assay on TxB2 production (0.75 h, 45 MIN post dose) it was 95%; in the assay with TxB2 production (1.25 h, 75 MIN post dose) it was 97%. The inhibition at 0.1 mg/kg came to 95% with TxB2 production (0.25 h, 15 MIN post dose) and 92% in the assay on TxB2 production (0.5 h, 30 MIN post dose).

For the compound `Cc1c(Cn2ccnc2)n(C)c2ccc(C(=O)O)cc12`, the inhibition at 0.3 mg/kg amounted to 99% in the assay with TxB2 production (2 min, 2 MIN post dose); 95% in the assay with TxB2 production (0.25 h, 15 MIN post dose); 93% in the assay with TxB2 production (0.75 h, 45 MIN post dose); 81% in the assay with TxB2 production (1.25 h, 75 MIN post dose). The inhibition at 0.1 mg/kg stood at 85% in the assay with TxB2 production (0.25 h, 15 MIN post dose) and 84% in the assay with TxB2 production (0.5 h, 30 MIN post dose).

Turning to `O=C(O)c1ccc2sc(Cn3ccnc3)cc2c1`, the inhibition at 0.3 mg/kg in the assay on TxB2 production (0.25 h, 15 MIN post dose) worked out at 96%; with TxB2 production (0.5 h, 30 MIN post dose) it was 89%.

Consider `Cc1c(Cc2cccnc2)sc2ccc(C(=O)O)cc12`, for which the inhibition at 0.3 mg/kg in the assay with TxB2 production (2 min, 2 MIN post dose) came out at 98%; with TxB2 production (0.25 h, 15 MIN post dose) it was 99%; with TxB2 production (0.75 h, 45 MIN post dose), 97%; in the assay with TxB2 production (1.25 h, 75 MIN post dose) it was 83%. Besides, the inhibition at 0.1 mg/kg worked out at 96% with TxB2 production (0.25 h, 15 MIN post dose) and 85% in the assay on TxB2 production (0.5 h, 30 MIN post dose).

Turning to `O=C(O)c1ccc2oc(Cn3ccnc3)c(Br)c2c1`, the inhibition at 0.3 mg/kg in the assay on TxB2 production (2 min, 2 MIN post dose) was 87%; with TxB2 production (0.25 h, 15 MIN post dose), 84%; in the assay on TxB2 production (0.75 h, 45 MIN post dose), 65%; in the assay with TxB2 production (1.25 h, 75 MIN post dose), 41%. The inhibition at 0.1 mg/kg with TxB2 production (0.25 h, 15 MIN post dose) came to 52%; in the assay on TxB2 production (0.5 h, 30 MIN post dose), 33%.

Take `Cc1c(Cn2ccnc2)sc2cc(C(=O)O)ccc12`: the inhibition at 0.3 mg/kg in the assay on TxB2 production (2 min, 2 MIN post dose) came to 100%; in the assay on TxB2 production (0.25 h, 15 MIN post dose), 100%; in the assay on TxB2 production (0.75 h, 45 MIN post dose) it was 100%; with TxB2 production (1.25 h, 75 MIN post dose) it was 100%. Besides, the inhibition at 0.1 mg/kg in the assay on TxB2 production (0.25 h, 15 MIN post dose) is 100%; in the assay with TxB2 production (0.5 h, 30 MIN post dose) it was 100%.

Values taken from patent US4496572A, “Benzo-fused thromboxane synthetase inhibitors” (Pfizer Inc., priority 1981, dated 1985).
